Data taken from patent publication US6607885B1, “Method for high-density microarray medicated gene expression profiling” (priority 1999, dated 2003).

How the values were obtained:
Type in all cases: cell-based, Escherichia coli
E. coli MG1655 = assay: IPTG induction, micro-array gene expression profiling
Experimental: E. coli MG1655 was cultured with aeration in either the minimal medium, M9 (Miller, J. H., Experiments in Molecular Genetics, Cold Spring Harbor (1972)), supplemented with 0.4% glucose or in the rich medium, LB (Miller, J. H., Experiments in Molecular Genetics, Cold Spring Harbor (1972)), at 37° C. The overnight culture was diluted 250 fold into fresh medium and aerated by shaking at 37° C. Samples of the minimal medium culture were harvested at A600=0.40 (exponential phase) and 1.6 (transition to stationary phase) prior to RNA isolation. An IPTG induction (Miller, J. H., Experiments in Molecular Genetics, Cold Spring Harbor (1972)) was performed to examine the specificity with which it effects gene expression. A culture grown overnight in LB at 37° C. was diluted 250 fold into fresh LB and aerated at 37° C. When the culture achieved an appropriate density (A600=0.40), it was split. To one portion was added IPTG to a final concentration of 1 mM; the untreated sample served as a control. Incubation of both samples was continued with aeration at 37° C. for another 15 min (A600=0.45 for both cultures) before RNA isolation was initiated.
RNA Isolation. An equivalent volume of shaved ice was added to 50 mL samples which were pelleted immediately in a refrigerated centrifuge by spinning at 10,410×g for 2 min. Each resultant pellet was resuspended in a mixture containing 100 μL of Tris HCl (10 mM, pH 8.0) and 350 μL of β-mercaptoethanol supplemented RLT buffer [Qiagen RNeasy Mini Kit, Valencia, Calif.]. The cell suspension was added to a chilled 2 mL screwed-capped microfuge tube containing 100 μL of 0.1 mm zirconia/silica beads (Biospec Product Inc., Bartlesville, Okla.). The cells were broken by agitation at room temperature for 25 sec with a Mini-Beadbeater™ (Biospec Products Inc., Bartlesville, Okla.). Debris was pelleted by centrifugation for 3 min at 16,000×g and 4° C.; the resultant supernatant was mixed with 250 μL of ethanol. This mixture was loaded onto a column from the Qiagen RNeasy Mini Kit. RNA isolation was completed using the protocol supplied with this kit. Incubation for 1 hr. at 37° C. in 40 mM Tris pH 8.0, 10 mM NaCl, 6 mM MgCl2 with RNase free RQ1 DNase (1 unit/μL, Promega, Madison, Wis.) digested any genomic DNA contaminating the RNA preparation. The digestion products were purified by a second passage through the RNeasy protocol (Qiagen, Valencia, Calif.). The product was eluted from the column in 50 μL RNAse-free water prior to determining sample concentration by an A260 reading. RNA preparations were stored frozen at either −20 or −80° C.
Synthesis of fluorescent cDNA from total RNA. Six microgram of RNA template and 12 μg of random hexamer primers (Operon Technologies, Inc., Alameda, Calif.) were diluted with double distilled (dd) water to a volume of 22 μL. Annealing was accomplished by incubation at 70° C. for 10 min followed by 10 min at room temperature. In order were added: 8 μL of 5×SuperScript II reaction buffer (Life Technologies, Inc., Gaithersberg, Md.), 4 μL of 0.1 M DTT, 2 μL of the dNTP mix (2 mM dATP, 2 mM dGTP, 2 mM TTP, 1 mM dCTP), 2 μL of 0.5 mM Cy3- or Cy5-dCTP (Amersham Pharmacia Biotech, Arlington Heights, Ill.), and 2 μL of SuperScript II reverse transcriptase ([…], Life Technologies Inc., Gaithersberg, Md.). DNA synthesis proceeded at 42° C. for 2.5 hr. before the reaction was terminated by heating at 94° C. for 5 min. Alkaline hydrolysis of the RNA templates was achieved by adding 2 μL of 5M NaOH followed by incubation at 37° C. for 10 min. Hydrolysis was terminated by the sequential addition of 3 μL of 5M HCl and 5 μL of 1M Tris-HCl, pH 6.8. The labeled cDNA was purified with a PCR purification kit (Qiagen, Valencia, Calif.), dried in a speed vacuum and stored at −20° C. Labeling efficiency was monitored using either A550, for Cy3 incorporation, or A650, for Cy5 labeling, to A260 ratios.
Hybridization and washing. […]

E. coli strain MG1655 = assay: MMC exposure, gene expression profile of MG1655
Experimental: (§1) Strains E. coli strain, MG1655, was used to determine the gene expression profile of E. coli in response to a MMC challenge. Two isogenic E. coli strains (Mount et al, J. Bacteriol. 112:886-893 (1972)), DM800 (lexA^+), used as control displaying a normal response to DNA damage, and DM803 (lexA^ind), a strain unable to mount the predominant “SOS” response to DNA damage, were compared using comprehensive gene expression profiling.
(§2) MMC experiment MG1655 cells were grown in LB overnight with aeration. The overnight cultures were diluted 100 fold in LB to final volume of 500 mL and grown at 37° C. to exponential phase. 200 mL of culture was treated with MMC to the final concentration of 250 ng/mL. Another 200 mL of culture were mock treated without MMC for comparison. Cells were harvested at 15 min and 40 min for MG1655 strain. With DM800 and DM803 stains, cells, cultured in an identical manner, were harvested after 40 min exposure. RNA was isolated and gene expression profile was analyzed as shown in Examples 1 and 2.

E. coli DM803 (lexAind) = assay: MMC exposure, gene expression profile of DM803 (lexAind); conditions: MMC for 40 min
Experimental: as §1, §2

E. coli DM800 (lexA+) = assay: MMC exposure, gene expression profile of DM800 (lexA+); conditions: MMC for 40 min
Experimental: as §1, §2

## CC(C)S[C@@H]1O[C@H](CO)[C@H](O)[C@H](O)[C@H]1O [IPTG, isopropylthiogalactoside]
E. coli MG1655; 1 mM IPTG for 15 min
  number of genes whose expression increased by a factor of more than 2: 8 genes
  two-fold or greater repression of arrayed genes: not observed
E. coli MG1655; gene b0956/ycbG (hydrogenase?), 1 mM IPTG, 15 min, LB, 37° C.
  fold IPTG induction of b0956/ycbG: 2.5 fold
E. coli MG1655; gene b1783/yeaG, 1 mM IPTG, 15 min, LB, 37° C.
  fold IPTG induction of b1783/yeaG: 3.6 fold
E. coli MG1655; gene b2324 (peptidase?), 1 mM IPTG, 15 min, LB, 37° C.
  fold IPTG induction of b2324: 5.3 fold
E. coli MG1655; gene lacA (thiogalactoside acyltransferase), 1 mM IPTG, 15 min, LB, 37° C.
  fold IPTG induction of lacA: 36 fold
E. coli MG1655; gene lacY (galactoside permease), 1 mM IPTG, 15 min, LB, 37° C.
  fold IPTG induction of lacY: 14 fold
E. coli MG1655; gene lacZ (galactosidase), 1 mM IPTG, 15 min, LB, 37° C.
  fold IPTG induction of lacZ: 29 fold
E. coli MG1655; gene melA (galactosidase), 1 mM IPTG, 15 min, LB, 37° C.
  fold IPTG induction of melA: 2.9 fold
E. coli MG1655; gene uxaA (altronate hydrolase), 1 mM IPTG, 15 min, LB, 37° C.
  fold IPTG induction of uxaA: 4.0 fold

## CO[C@@]12[C@H](COC(N)=O)C3=C(C(=O)C(C)=C(N)C3=O)N1C[C@@H]1N[C@@H]12 [MMC, mitomycin C]
E. coli strain MG1655; 40 min exposure, MMC 250 ng/mL
  number of genes with expression elevated greater than 2 fold relative to the control: 40 genes
E. coli strain MG1655; 40 min exposure, recN, dinI, sulA, lexA, recA, uvrA, dinD, priC, umuC, mioC, uvrB, ruvA, xseA
  number of stress response genes induced more than 2 fold: 13 genes
E. coli strain MG1655; cells harvested at 15 min post exposure, MMC 250 ng/mL
  SOS response: very little
E. coli DM803 (lexAind)
  induction of SOS responsive genes, including lexA: not induced
  induction of dicB, dicC, sdiA, cheW, motA, cycA, fadL, chaC, codB and btuC: greater than 2 fold
E. coli DM800 (lexA+)
  induction of SOS responsive genes: greater than 2 fold
  induction of dicB, dicC, sdiA, cheW, motA, cycA, fadL, chaC, codB and btuC: not induced
